# Reference: article PMC7932521, “2-aminobenzimidazoles for leishmaniasis: From initial hit discovery to in vivo profiling” (PLoS Neglected Tropical Diseases, 2021)
# pIC50: −log10 of the molar value. Like-named read-outs stand apart in the source and are kept apart here.
# Assays:
# [1] = tested on: L. guyanensis MHOM/PE/02/PER 054/0; assay: VL/CL panel, intracellular amastigotes; assay type: cell-based; settings: Leishmania guyanensis; average; read-out: IC-50 L. guyanensis MHOM/PE/02/PER 054/0
# Experimental: (§1) For the antileishmania in vitro assays, 3×10^4 PMM/well were seeded in 96-well plates. After 24h, 5×10^5 amastigotes/well were added and incubated for 2h at 37°C. Next, the compounds in 4-fold serial dilutions were added and the plates were further incubated for 5 days (37°C, 5% CO2). Parasite burdens were assessed using an inverted microscope after Giemsa staining. The results were expressed as percent reduction in parasite burdens compared to negative control wells (100% growth) and IC50 values were determined. Values represent the geometric mean of at least two independent experiments. Miltefosine was used as the positive control in all plates.
# [2] = tested on: L. donovani MHOM/NP/03/BPK275/0-cl18; assay: VL/CL panel, intracellular amastigotes; assay type: cell-based; settings: Leishmania donovani; average; read-out: IC-50 L. donovani MHOM/NP/03/BPK275/0-cl18
# Experimental: as §1
# [3] = tested on: L. braziliensis MHOM/BR/94/H3227; assay: VL/CL panel, intracellular amastigotes; assay type: cell-based; settings: Leishmania braziliensis; average; read-out: IC-50 L. braziliensis MHOM/BR/94/H3227
# Experimental: as §1
# [4] = tested on: L. infantum MHOM/ES/2016/LLM-2346; assay: VL/CL panel, intracellular amastigotes; assay type: cell-based; settings: Leishmania infantum; average; read-out: IC-50 L. infantum MHOM/ES/2016/LLM-2346
# Experimental: as §1
# [5] = tested on: L. donovani MHOM/ET/2007/LLM-1600; assay: VL/CL panel, intracellular amastigotes; assay type: cell-based; settings: Leishmania donovani; average; read-out: IC-50 L. donovani MHOM/ET/2007/LLM-1600
# Experimental: as §1
# [6] = tested on: L. panamensis MHOM/PA/71/LS94; assay: VL/CL panel, intracellular amastigotes; assay type: cell-based; settings: Leishmania panamensis; average; read-out: IC-50 L. panamensis MHOM/PA/71/LS94
# Experimental: as §1
# [7] = tested on: L. donovani MHOM/ NP/2003/ BPK282/0-cl4; assay: VL/CL panel, intracellular amastigotes; assay type: cell-based; settings: Leishmania donovani; average; read-out: IC-50 L. donovani MHOM/ NP/2003/ BPK282/0-cl4
# Experimental: as §1
# [8] = tested on: L. infantum LEM3323-cl4 PMM; assay: VL/CL panel, intracellular amastigotes; assay type: cell-based; settings: Leishmania infantum, read-out: IC-50 L. infantum LEM3323-cl4 PMM
# Experimental: as §1
# [9] = tested on: L. major MHOM/SA/85/JISH118; assay: VL/CL panel, intracellular amastigotes; assay type: cell-based; settings: Leishmania major; average; read-out: IC-50 L. major MHOM/SA/85/JISH118
# Experimental: as §1
# [10] = tested on: L. infantum LEM3323-cl4 MIL; assay: VL/CL panel, intracellular amastigotes; assay type: cell-based; settings: Leishmania infantum, read-out: IC-50 L. infantum LEM3323-cl4 MIL
# Experimental: as §1
# [11] = tested on: L. infantum MHOM/BR/2007/WC (L3015); assay: VL/CL panel, intracellular amastigotes; assay type: cell-based; settings: Leishmania infantum; average; read-out: IC-50 L. infantum MHOM/BR/2007/WC (L3015)
# Experimental: as §1
# [12] = tested on: L. major MHOM/IL/81/Friedlin; assay: VL/CL panel, intracellular amastigotes; assay type: cell-based; settings: Leishmania major; average; read-out: IC-50 L. major MHOM/IL/81/Friedlin
# Experimental: as §1
# [13] = tested on: L. infantum MHOM/FR/96/LEM3323-cl4; assay: VL/CL panel, intracellular amastigotes; assay type: cell-based; settings: Leishmania infantum; average; read-out: IC-50 L. infantum MHOM/FR/96/LEM3323-cl4
# Experimental: as §1
# [14] = tested on: L. tropica MHOM/AF/2015/HTD7; assay: VL/CL panel, intracellular amastigotes; assay type: cell-based; settings: Leishmania tropica; average; read-out: IC-50 L. tropica MHOM/AF/2015/HTD7
# Experimental: as §1
# [15] = tested on: Leishmania infantum MHOM/MA(BE)/67/ITMAP263 amastigotes; assay: L. infantum intracellular amastigote assay in PMM; assay type: cell-based; settings: Leishmania infantum
# Procedure, shortened: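 Mouse peritoneal macrophages infected with hamster spleen-derived amastigotes (2 h, 37°C), then exposed to 4-fold dilutions from 64 μM (DMSO <1%) for 5 days at 37°C, 5% CO2. Burden scored microscopically after Giemsa staining as percent reduction vs untreated wells; IC50 as geometric mean of ≥2 experiments.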
# [16] = tested on: L. infantum (MHOM/BR/2005/NLC) strain expressing luciferase; assay type: in vivo, Leishmania infantum; settings: 40 mg/kg/day oral, 5 days, and washout
# Experimental: Groups of female BALB/c mice (n = 5) were infected with 10^8 stationary phase promastigotes of L. infantum chagasi-LUC in a final volume of 100 μL by the intraperitoneal route. At day 14 post-infection, groups were orally treated for 5 days with either drug vehicle only (10% ethanol, 40% PEG400 and 0.4% Tween80 in saline buffer—pH adjusted to 9), miltefosine (40 mg/kg QD) or with compounds 29 and 39 (25 mg/kg QD). Light emission in the ventral abdominal cavity of infected animals was recorded by bioimaging (IVIS Spectrum, Caliper Life Sciences) on 14, 19- and 24-days post-infection. Before imaging, mice received 75 mg/kg VivoGlo™ Luciferin (Promega Corporation) (i.p.) and were anesthetized in a 2% isoflurane atmosphere (Cristália). Animals were then transferred to the imaging chamber and kept in a 2% isoflurane atmosphere. Emitted photons were collected using the high resolution (medium binning) mode. Total photon emission from a defined region of interest (ROI) corresponding to the whole abdominal area was registered. The same ROI was applied to all animals in any given group. Images were acquired 15 min after luciferin injection. Total photon emission from each mouse was quantified with Living Image software version 4.3.1 (Caliper Life Sciences), and results were expressed as the number of photons/s/ROI subtracted from the corresponding ROI in uninfected animals. The detected signal was presented as a pseudocolor image representing light intensity (red = most intense and blue = least intense) and superimposed on the gray scale reference image.
structure (smiles),measurement,setting,value
"CCCCCCCCCCCCCCCCOP(=O)([O-])OCC[N+](C)(C)C [Miltefosine, reference compound]",pIC50,[1],5.09
same,pIC50,[2],5.68
same,pIC50,[3],6.00
same,pIC50,[4],5.68
same,pIC50,[5],5.70
same,pIC50,[6],5.74
same,pIC50,[7],5.74
same,pIC50,[8],5.57
same,pIC50,[9],4.62
same,pIC50,[10],4.69
same,pIC50,[11],5.67
same,pIC50,[12],4.95
same,pIC50,[13],5.70
same,pIC50,[14],5.67
same,pIC50,"[15]; 120 h, intracellular amastigotes in PMM, 5 days, read-out: L. infantum IC50",4.95
same,pIC50,"[15]; panel sheet, average, read-out: IC-50 L. infantum MHOM/MA/67/ITMAP263",5.94
same,parasite load (total ventral bioluminescence),[16],undetectable levels
